Test results taken from patent US12595269B2, “Morpholine-like monoamine releasers” (Solvonis Therapeutics Ireland Holdings Limited, priority 2022, dated 2026).

Test system: extracellular dopamine (DA), serotonin (5-HT), and noradrenaline (NE) levels in the nucleus accumbens
Experiment: In vivo microdialysis of monoamines in rat nucleus accumbens after intraperitoneal administration
Set-up: species or system Sprague Dawley rats
Conditions: rat NAcc microdialysis, IP
Protocol: Methods and Procedure: This study was conducted in compliance with previously described procedures to assure data integrity, adherence to GLP regulations, and standard preclinical study and surgery procedures. The in vivo microdialysis technique was applied to measure the over-time variations of DA, 5-HT, and NE extracellular (EC) concentrations in conscious, freely-moving Sprague Dawley rats. Levels of the neurotransmitters in microdialysis samples were determined using LC-MS/MS analysis. The experiment was also conducted with MDMA, which was used for comparative purposes.
As it relates to cannula implantation, the rats were anesthetized with isoflurane 4% in oxygen (2-2.5 L/min), then the isoflurane concentration 2-2.5% was maintained via a nose cone adapted to the stereotaxic apparatus. The rats were treated with meloxicam (0.2 mg/kg, subcutaneously, sc; Meloxidolor) and amoxicilline (150 mg/kg, sc, Betamox LA). The skull was then shaved and disinfected. Rats were then placed in a stereotaxic apparatus for small animals. One vertical guide cannula was inserted through a 1 mm hole drilled on the exposed skull. Coordinates—with respect to bregma—to target specific brain areas, followed indications from stereotaxic atlas of the rat brain. Specifically a guide cannula (MAB 4.12.IC, Agn Tho's AB, Lidingo, Sweden) was inserted in the NAcc (anteroposterior+1.6; lateral −1.6; dorsoventral −6.0). The guide cannula was then secured with dental cement and 2-4 screws. At the end of the surgery the animal was isolated in a single cage during recovery, for a period of at least one week, during which animal health conditions were checked twice daily and the weight recorded twice a week. Animals continued to be housed singly throughout the experiment. One day before the experiment the cannula stylet was removed and a microdialysis probe with a dialyzing length of 2 mm (MAB 4.12.2 Cu, Agn Tho's AB, Lidingo, Sweden) was inserted. Probes can be re-used 2 times for 2 experimental sessions after appropriate cleaning with fresh milliQ water.
Post-surgery, the rats were maintained in a heating chamber prior to waking up in order to avoid hypothermia that could be caused by anaesthesia. 5 mL of physiologic solution was subcutaneously administered immediately after surgery, and once/day for 2-3 days, if signs of dehydration are noticed. Meloxicam (Meloxidolor) 0.2 mg/kg was again administered subcutaneously the day after surgery as well as after 48h after surgery together with Amoxicilline Long Acting (Betamox LA) 150 mg/kg. Health status and body weight was checked every day during the first week.
The animals were treated with test compounds described herein, MDMA, or their vehicle (saline) according to a Latin square design over 5 separate experimental days (one day/week). The treatments were administered in a volume of 1 mL/kg intraperitoneally.
On the day of the experiment, each animal was taken into the laboratory in its home cage. Inlet tubing of the probe was attached to a dual quartz-lined two channel liquid swivel mounted on a low mass spring counterbalance arm which, in turn, was connected to a gas-tight syringe on a microinfusion pump. […] An equilibration period of about two hours of perfusion was allowed before collecting samples. Following the equilibration period, 4 basal samples were collected for each experimental animal followed by further 10 post-treatment samples. Samples were collected every 20 minutes (up to 3 hours and 20 minutes post-treatment) by means of a refrigerated auto-sampler (Univentor 820 Microsampler, Agn tho's, Sweden) maintained at +8° C. At the end of all experimental sessions, 2 μL of 0.1% methylene blue solution was injected through the microdialysis probe, animals were euthanized, and their brains removed to confirm the correct probe-position.
The concentrations of DA, 5-HT and NE in CSF samples were determined using an optimized method based on LC-MS/MS analysis. […]

| Compound | 5HT level relative to baseline levels (100%) (20 min post-administration) | DA level relative to baseline levels (100%) (20 min post-administration) | NE level relative to baseline levels (100%) (20 min post-administration) | 5HT level relative to baseline levels (100%) (40 min post-administration) | DA level relative to baseline levels (100%) (40 min post-administration) | NE level relative to baseline levels (100%) (40 min post-administration) | 5HT level relative to baseline levels (100%) (60 min post-administration) | DA level relative to baseline levels (100%) (60 min post-administration) | NE level relative to baseline levels (100%) (60 min post-administration) | 5HT level relative to baseline levels (100%) (200 min post-administration) | DA level relative to baseline levels (100%) (200 min post-administration) | NE level relative to baseline levels (100%) (200 min post-administration) |
| --- | --- | --- | --- | --- | --- | --- | --- | --- | --- | --- | --- | --- |
| Clc1ccc(C23CNC(CO2)C3)cc1Cl (centres unmarked) [522A, 1-(3,4-dichlorophenyl)-2-oxa-5-azabicyclo[2.2.1]heptane] | 100% | 100% | 130% | 380% | 160% | 150% | 480% | 185% | 160% | 200% | 125% | 125% |
| CNC(C)Cc1ccc2c(c1)OCO2 (centres unmarked) [MDMA, reference compound] | 130% | 120% | 120% | 2150% | 400% | 500% |  | 560% | 500% | 900% | 300% | 300% |
